Where a name gives a salt, the structure may show the parent alone.
Columns and labels:
Format in all cases: biochemical
recombinant human VAP-1 = biological target: T1, recombinant human VAP-1 (Homo sapiens, UniProt Q16853); assay: Activity on recombinant human VAP-1, HRP-coupled Amplex Red hydrogen peroxide assay, benzylamine substrate; conditions: 30 min incubation at 37° C., 1 mM benzylamine, read-out: Inhibitory Activity (IC50, nM) human VAP-1
T1 construct: purchased R&D systems
T1 sequence (Q16853 1-763): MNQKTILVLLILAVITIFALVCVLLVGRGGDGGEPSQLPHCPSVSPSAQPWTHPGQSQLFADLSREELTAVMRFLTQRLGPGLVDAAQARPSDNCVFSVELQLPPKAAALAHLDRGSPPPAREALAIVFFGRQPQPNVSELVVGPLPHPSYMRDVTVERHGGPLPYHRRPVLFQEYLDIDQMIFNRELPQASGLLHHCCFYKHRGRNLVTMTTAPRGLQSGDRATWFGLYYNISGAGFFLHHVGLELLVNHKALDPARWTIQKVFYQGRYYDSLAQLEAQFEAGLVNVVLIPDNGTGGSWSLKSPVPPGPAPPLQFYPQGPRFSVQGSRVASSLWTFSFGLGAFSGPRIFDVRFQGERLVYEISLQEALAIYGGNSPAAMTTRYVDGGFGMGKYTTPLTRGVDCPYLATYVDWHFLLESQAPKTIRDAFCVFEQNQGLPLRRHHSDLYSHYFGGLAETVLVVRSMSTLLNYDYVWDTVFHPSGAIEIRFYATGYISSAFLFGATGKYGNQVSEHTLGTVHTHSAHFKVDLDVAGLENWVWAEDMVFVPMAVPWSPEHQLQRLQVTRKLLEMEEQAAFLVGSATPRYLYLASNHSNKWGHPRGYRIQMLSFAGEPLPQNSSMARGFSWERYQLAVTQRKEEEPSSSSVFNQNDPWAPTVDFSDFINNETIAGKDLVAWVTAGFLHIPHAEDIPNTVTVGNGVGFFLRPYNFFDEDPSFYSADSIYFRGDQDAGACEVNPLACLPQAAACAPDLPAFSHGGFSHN
Experimental: (§1) The compounds according to the present technology were evaluated in terms of activity on recombinant human VAP-1 (R&D systems) by measuring the level of hydrogen peroxide in horseradish peroxidase (HRP)-coupled reaction using Amplex Red Hydrogen Peroxide Assay Kit (Molecular Probes, Invitrogen, USA). The experiment was carried out at room temperature using benzylamine as a substrate. In the HRP-coupled reaction, hydrogen peroxide oxidation of 10-acetyl-3,7-dihydroxyphenoxazine (Amplex Red reagent) produces resorufin, which is a highly fluorescent compound. Briefly, the test compound was dissolved in dimethyl sulfoxide (DMSO) at a concentration of 20 mM. The dose-response assessment was made by 1:3 serial dilution in DMSO, thereby creating a 8 point curve. The concentration of the upper part was controlled according to the efficacy of the compounds, followed by dilution with a reaction buffer solution to obtain a final DMSO concentration of less than 1%. To each well of a 96 black well plate, human VAP-1 purified in 50 mM sodium phosphate buffer solution (pH7.4) was added. The test compounds dissolved in DMSO were incubated with the human VAP-1 enzymes at 37° C. for 30 minutes. After 30-minute incubation, each well was added with a reaction mixture containing 200 uM Amplex Red reagent prepared from 50 mM sodium phosphate buffer solution (pH 7.4), 1 mM benzylamine, and 1 U/mL HRP. Fluorescence intensity was measured at several time points during 1-2 hours using a microplate reader (Flexstation3, Molecular Devices) under the wavelength condition exciting at 544 nm and reading the emission at 590 nm. The inhibitory effect of the compounds was measured as a decrease (%) in the signal rate as compared to the control group without any inhibitor (only diluted DMSO). Data was fixed to a logistic model with four variables and IC50 value was calculated using GraphPad Prism program.

[1] = biological target: T2, recombinant human MAO-A (monoamine oxidase-A) (Homo sapiens, UniProt P21397); assay: Activity on recombinant human MAO-A, method similar to VAP-1 assay, 0.5 mM tyramine substrate; conditions: read-out: Inhibitory Activity (IC50, nM) MAO-A
T2 construct: purchased Sigma-Aldrich
T2 sequence (P21397 1-527): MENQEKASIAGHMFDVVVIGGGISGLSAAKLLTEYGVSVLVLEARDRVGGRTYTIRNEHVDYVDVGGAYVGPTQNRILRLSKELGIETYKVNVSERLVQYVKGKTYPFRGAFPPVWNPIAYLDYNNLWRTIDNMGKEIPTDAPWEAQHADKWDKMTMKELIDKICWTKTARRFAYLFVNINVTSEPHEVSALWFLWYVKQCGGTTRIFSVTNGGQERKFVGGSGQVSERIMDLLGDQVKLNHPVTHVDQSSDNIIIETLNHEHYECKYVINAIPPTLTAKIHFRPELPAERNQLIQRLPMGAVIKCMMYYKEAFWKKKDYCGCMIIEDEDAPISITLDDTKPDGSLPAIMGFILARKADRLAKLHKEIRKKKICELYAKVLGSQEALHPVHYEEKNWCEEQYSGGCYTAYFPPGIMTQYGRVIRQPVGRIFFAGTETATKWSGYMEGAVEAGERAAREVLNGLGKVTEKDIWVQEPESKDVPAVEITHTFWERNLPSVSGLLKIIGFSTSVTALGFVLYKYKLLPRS
Experimental: as §1
(§2) In addition, the compounds according to the present technology were evaluated in terms of activity on a recombinant human MAO-A (monoamine oxidase-A, Sigma-Aldrich) and a recombinant human MAO-B(monoamine oxidase-B, Sigma-Aldrich) by using as substrates, 0.5 mM tyramine and 1 mM benzylamine, respectively, with a method similar to the activity evaluation method for recombinant human VAP-1. The compounds according to the present technology were also evaluated in terms of activity on a recombinant human DAO (diamine oxidase, R&D systems) by using as a substrate 1 mM putrescine with a method similar to the activity evaluation method for recombinant human VAP-1.

[2] = biological target: T3, recombinant human MAO-B (monoamine oxidase-B) (Homo sapiens, UniProt P27338); assay: Activity on recombinant human MAO-B, method similar to VAP-1 assay, 1 mM benzylamine substrate; conditions: read-out: Inhibitory Activity (IC50, nM) MAO-B
T3 construct: purchased Sigma-Aldrich
T3 sequence (P27338 1-520): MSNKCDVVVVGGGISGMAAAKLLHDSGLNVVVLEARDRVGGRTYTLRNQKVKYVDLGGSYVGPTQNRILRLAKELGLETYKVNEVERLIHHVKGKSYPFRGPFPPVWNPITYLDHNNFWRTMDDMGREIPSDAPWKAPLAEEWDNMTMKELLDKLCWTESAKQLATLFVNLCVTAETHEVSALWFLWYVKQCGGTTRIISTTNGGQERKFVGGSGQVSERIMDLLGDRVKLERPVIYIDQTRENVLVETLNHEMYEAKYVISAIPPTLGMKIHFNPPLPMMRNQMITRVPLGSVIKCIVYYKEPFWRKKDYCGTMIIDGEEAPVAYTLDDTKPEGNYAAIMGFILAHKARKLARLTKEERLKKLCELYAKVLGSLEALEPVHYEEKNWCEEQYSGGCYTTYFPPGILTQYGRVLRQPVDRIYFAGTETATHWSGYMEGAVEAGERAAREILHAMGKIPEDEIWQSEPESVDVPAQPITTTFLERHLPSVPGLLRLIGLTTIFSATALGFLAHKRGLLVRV
Experimental: as §1, §2

[3] = biological target: T4, recombinant human DAO (diamine oxidase) (Homo sapiens, UniProt P19801); assay: Activity on recombinant human DAO, method similar to VAP-1 assay, 1 mM putrescine substrate; conditions: read-out: Inhibitory Activity (IC50, nM) DAO
T4 construct: purchased R&D systems
T4 sequence (P19801 20-751): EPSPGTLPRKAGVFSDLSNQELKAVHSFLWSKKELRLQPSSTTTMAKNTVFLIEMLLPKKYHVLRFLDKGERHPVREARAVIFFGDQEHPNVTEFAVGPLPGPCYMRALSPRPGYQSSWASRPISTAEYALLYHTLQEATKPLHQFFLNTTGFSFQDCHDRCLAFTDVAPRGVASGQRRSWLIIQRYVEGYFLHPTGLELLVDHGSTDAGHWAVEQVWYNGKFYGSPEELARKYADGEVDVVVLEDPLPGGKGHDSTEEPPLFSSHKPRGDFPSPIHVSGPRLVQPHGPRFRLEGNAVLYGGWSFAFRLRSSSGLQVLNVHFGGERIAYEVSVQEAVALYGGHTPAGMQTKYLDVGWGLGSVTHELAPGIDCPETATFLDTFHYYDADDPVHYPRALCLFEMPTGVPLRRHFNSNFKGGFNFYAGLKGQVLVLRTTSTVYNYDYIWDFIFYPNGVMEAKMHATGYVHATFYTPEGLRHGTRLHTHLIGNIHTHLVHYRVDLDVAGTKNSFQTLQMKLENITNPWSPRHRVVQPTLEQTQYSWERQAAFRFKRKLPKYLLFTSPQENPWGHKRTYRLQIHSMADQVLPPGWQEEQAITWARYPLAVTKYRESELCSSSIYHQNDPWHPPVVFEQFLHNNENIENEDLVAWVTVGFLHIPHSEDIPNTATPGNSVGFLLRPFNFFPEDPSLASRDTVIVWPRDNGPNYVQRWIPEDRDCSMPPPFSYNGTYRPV
Experimental: as §1, §2

SMILES	IC50 (recombinant human VAP-1)	IC50 [1]	IC50 [2]	IC50 [3]
NCC(Cn1nc2cc(C#Cc3cnc4c(c3)NCCO4)ccn2c1=O)=C(F)F [Example 60, 2-[2-(aminomethyl)-3,3-difluoro-allyl]-7-[2-(2,3-dihydro-1H-pyrido[2,3-b][1,4]oxazin-7-yl)ethynyl]-[1,2,4]triazolo[4,3-a]pyridin-3-one ditrifluoroacetate]	0.4 nM	> 100000 nM	> 100000 nM	220 nM
NC/C(=C\F)Cn1nc2cccc(-c3ccc(-c4ccon4)cc3)n2c1=O [Example 19, 2-[(2E)-2-(aminomethyl)-3-fluoroprop-2-en-1-yl]-5-[4-(1,2-oxazol-3-yl)phenyl][1,2,4]triazolo[4,3-a]pyridin-3(2H)-one trifluoroacetate]	38 nM	–	–	–
NC/C(=C\F)Cn1nc2ccc(-c3ccc(-c4ccon4)cc3)cn2c1=O [Example 7, 2-[(2E)-2-(aminomethyl)-3-fluoroprop-2-en-1-yl]-6-[4-(1,2-oxazol-3-yl)phenyl][1,2,4]triazolo[4,3-a]pyridin-3(2H)-one hydrochloride]	2.3 nM	> 100000 nM	25 nM	0.2 nM
NC/C(=C\F)Cn1nc2cc(-c3ccc(-c4ccon4)cc3)ccn2c1=O [Example 25, 2-[(2E)-2-(aminomethyl)-3-fluoroprop-2-en-1-yl]-7-[4-(1,2-oxazol-3-yl)phenyl][1,2,4]triazolo[4,3-a]pyridin-3(2H)-one hydrochloride]	0.2 nM	18000 nM	220 nM	9.1 nM
NC/C(=C\F)Cn1nc2ccc(-c3ccc4sc(N)nc4c3)cn2c1=O [Example 14, 6-(2-amino-1,3-benzothiazol-5-yl)-2-[(2E)-2-(aminomethyl)-3-fluoroprop-2-en-1-yl][1,2,4]triazolo[4,3-a]pyridin-3(2H)-one trifluoroacetate]	6.2 nM	> 100000 nM	69 nM	< 100 nM
NC/C(=C\F)Cn1nc2cc(-c3ccc(N4CCOCC4)nc3)ccn2c1=O [Example 33, 2-[(2E)-2-(aminomethyl)-3-fluoroprop-2-en-1-yl]-7-[6-(morpholin-4-yl)pyridin-3-yl][1,2,4]triazolo[4,3-a]pyridin-3(2H)-one hydrochloride]	0.4 nM	–	130 nM	5.8 nM
CC(=O)Nc1cc(-c2ccc3nn(C/C(=C/F)CN)c(=O)n3c2)ccn1 [Example 8, N-[4-[2-[(2E)-2-(aminomethyl)-3-fluoroprop-2-en-1-yl]-3-oxo-2,3-dihydro[1,2,4]triazolo[4,3-a]pyridin-6-yl]pyridin-2-yl]acetamide trifluoroacetate]	14 nM	–	–	< 100 nM
NC/C(=C\F)Cn1nc2ccc(Br)cn2c1=O [Example 1, 2-[(2E)-2-(aminomethyl)-3-fluoroprop-2-en-1-yl]-6-bromo[1,2,4]triazolo[4,3-a]pyridin-3(2H)-one hydrochloride]	87 nM	–	–	100 nM
NC/C(=C\F)Cn1nc2ccc(-c3ccc(N4CCOCC4)nc3)cn2c1=O [Example 11, 2-[(2E)-2-(aminomethyl)-3-fluoroprop-2-en-1-yl]-6-[6-(morpholin-4-yl)pyridin-3-yl][1,2,4]triazolo[4,3-a]pyridin-3(2H)-one hydrochloride]	3.7 nM	–	39 nM	0.2 nM
NC/C(=C\F)Cn1nc2cccc(-c3ccc4c(c3)OCO4)n2c1=O [Example 20, 2-[(2E)-2-(aminomethyl)-3-fluoroprop-2-en-1-yl]-5-(1,3-benzodioxol-5-yl)[1,2,4]triazolo[4,3-a]pyridin-3(2H)-one trifluoroacetate]	> 100 nM	–	–	–
CC(=O)Nc1ccc(-c2cccc3nn(C/C(=C/F)CN)c(=O)n23)cc1 [Example 18, N-[4-[2-[(2E)-2-(aminomethyl)-3-fluoroprop-2-en-1-yl]-3-oxo-2,3-dihydro[1,2,4]triazolo[4,3-a]pyridin-5-yl]phenyl]acetamide trifluoroacetate]	90 nM	–	–	–
NC/C(=C\F)Cn1nc2cccc(-c3ccc4nonc4c3)n2c1=O [Example 21, 2-[(2E)-2-(aminomethyl)-3-fluoroprop-2-en-1-yl]-5-(2,1,3-benzoxadiazol-5-yl)[1,2,4]triazolo[4,3-a]pyridin-3(2H)-one trifluoroacetate]	150 nM	–	–	–

Source: patent US11091479B2, “Triazolopyridin-3-ones or their salts and pharmaceutical compositions comprising the same” (YUHAN CORPORATION, priority 2018, dated 2021)
